{"source": "paper PMC11953309", "about": "(Nature Communications, 2025)", "system": "IBD mouse fecal-derived ex vivo microbial community", "test": "Ex vivo screening on IBD mouse fecal-derived microbial community", "format": "cell-based, IL-10-deficient C57BL/6N mouse", "data": [{"smiles": "CN[C@H](CC(C)C)C(=O)N[C@H]1C(=O)N[C@@H](CC(N)=O)C(=O)N[C@H]2C(=O)N[C@H]3C(=O)N[C@H](C(=O)N[C@H](C(=O)O)c4cc(O)cc(O)c4-c4cc3ccc4O)[C@H](O)c3ccc(c(Cl)c3)Oc3cc2cc(c3O[C@@H]2O[C@H](CO)[C@@H](O)[C@H](O)[C@H]2O[C@H]2C[C@](C)(N)[C@H](O)[C@H](C)O2)Oc2ccc(cc2Cl)[C@H]1O", "note": "[vancomycin]", "values": [{"measurement": "Number of differentially abundant species", "setting": "10 μg/mL, 48 h anaerobic, mGAM, MaAsLin2 vs blank, FDR-adjusted p < 0.05, n = 3", "result": 73}, {"measurement": "beta diversity (PCoA, Bray-Curtis) clustering vs blank", "setting": "AIPs 10 μg/mL, vancomycin 1 μg/mL and 10 μg/mL, 48 h", "result": "notable differences"}]}]}
